Source: BindingDB's records for patent US12435087 (Cellarity, 2025)

The compounds below were run against T1, DCN1-like protein 1 (Homo sapiens, UniProt Q96GG9) (assay: TR-FRET Assay (1 hour)).
Description: (§1) The DCN1 protein was biotinylated (EZ sulfo-NHS-LC-biotin; Thermofisher) for labeling with streptavidin terbium (Tb) cryptate in the reaction. The probe was changed to a non-covalent DCN1 inhibitor labeled with carboxyfluorescein (FAM; Zhou et al., Nat Commun. 2017; 8: 1150. Doi: 10.1038/s41467-017-01243-7). Buffer conditions were modified to enhance protein stability by exchanging Tween20 for TritonX and increasing NaCl to 200 mM. The compounds were screened against 5 nM DCN1 and 20 nM FAM-probe or 0.31 nM DCN1 and 900 nM total probe (100 nM FAM-labeled plus 800 nM unlabeled). The TR-FRET ratio between Tb-DCN1 and the FAM-labeled probe was measured in a 384-well opti-plate (Perkin Elmer) using a plate reader (BMG) at 1 hour after treatment with compound (final DMSO concentration of 0.1%).

T1 sequence (Q96GG9 whole entry): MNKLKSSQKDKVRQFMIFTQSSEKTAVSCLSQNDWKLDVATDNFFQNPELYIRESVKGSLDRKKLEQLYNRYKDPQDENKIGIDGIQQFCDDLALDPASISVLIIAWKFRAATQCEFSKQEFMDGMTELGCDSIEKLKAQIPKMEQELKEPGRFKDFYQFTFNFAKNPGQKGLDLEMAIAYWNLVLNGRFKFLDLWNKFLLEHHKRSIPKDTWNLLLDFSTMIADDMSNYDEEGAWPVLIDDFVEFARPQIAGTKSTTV

Row | Compound | IC50
1 | CCN1C(=O)[C@@H](NC(=O)c2nccc(C(F)(F)F)n2)[C@H](c2cccc(C(=O)N3C[C@H](F)C[C@H]3C#N)c2)c2cnn(-c3ccccc3)c21 [US12435087, Compound I-350] | 1000 to 3000 nM
2 | C=C(CN1CCOCC1)C(=O)NCc1cccc([C@@H]2c3cnn(-c4ccccc4)c3N(CC)C(=O)[C@H]2NC(=O)c2ccn(C3CC3)n2)c1 [US12435087, Compound I-280] | < 200 nM
3 | C=C(CN(C)C1COC1)C(=O)NCc1cccc([C@@H]2c3cnn(-c4ccccc4)c3N(CC)C(=O)[C@H]2NC(=O)c2ccn(C(F)(F)F)n2)c1 [US12435087, Compound I-378] | < 200 nM
4 | C=CS(=O)(=O)Nc1cccc([C@H]2c3c(C)nn(-c4ccccc4)c3N(CC)C(=O)[C@@H]2NC(=O)c2cccc(C(F)(F)F)c2)c1 (racemic) [US12435087, Compound I-5] | < 200 nM

Each compound was assayed against T1, DCN1-like protein 1 (assay: TR-FRET Assay (24 hour)).
Description: as §1, with “24 hrs” for “1 hour”

Row | Compound | IC50
5 | CCN1C(=O)[C@H](NC(=O)c2cccc(C(F)(F)F)c2)[C@@H](c2cccc(NC(=O)/C=C/CN(C)C)c2)c2c(C)nn(-c3ccccc3)c21 (racemic) [US12435087, Compound I-38] | < 200 nM
6 | C=C(CN(C)C1COC1)C(=O)N(C)Cc1cccc([C@@H]2c3cnn(-c4ccccc4)c3N(CC)C(=O)[C@H]2NC(=O)c2nccc(C(F)(F)F)n2)c1 [US12435087, Compound I-254] | < 200 nM
7 | C=C(CN1CC2CC(C1)O2)C(=O)N(C)Cc1cccc([C@@H]2c3cnn(-c4ccccc4)c3N(CC)C(=O)[C@H]2NC(=O)c2ccn(C3CC3)n2)c1 [US12435087, Compound I-258] | < 200 nM
8 | C=C(CN(C)C1COC1)C(=O)N(C)Cc1cccc([C@@H]2c3cnn(-c4ccccc4)c3N(CC)C(=O)[C@H]2NC(=O)c2ccn(C3CC3)n2)c1 [US12435087, Compound I-239] | < 200 nM
